Test results published in patent publication US20260042747A1, “KIT INHIBITORS, COMPOUNDS, PHARMACEUTICAL COMPOSITIONS, AND METHODS OF USE THEREOF” (Alivexis, Inc., priority 2022, published 2026).
Where two headings read alike, the source gives them in different places.

Columns and labels:
[1] = test system: M-07e cells; experiment: SCF-dependent M-07e cell proliferation assay; format: cell-based, human; details: read-out: M-07e IC50
Experimental: SCF-dependent cell proliferation assay was developed to measure the inhibitory potency of the compounds in M-07e cells, which express wild-type human KIT protein. The assay was performed in 96-well plates and the IC50 of each KIT inhibitor was determined by CellTiter Glo Assay reagent and Victor X5 Multilabel Counter (Perkin Elmer).
M-07e cells were purchased from AcceGen Biotechnology. Cells were maintained with M-07e Growth medium: RPMI-1640 containing 20% FBS, 100 U/mL penicillin and 100 microgram/mL streptomycin, 10 ng/mL rhGM-CSF, 10 ng/mL rhSCF. M-07e cells were seeded at a density of 5000 cells/90 μL/well in 96-well plates. Test compounds were dissolved in 100% DMSO to make 20 mM stock solution and serially diluted 1:3 with 100% DMSO to make an 11-point dilution series with concen-trations from […] to 0.024 μM. The serially diluted compounds were then each diluted 1:50 with culture medium to obtain assay compound solutions containing 2% DMSO. Ten μL of assay compound solutions were added to the 90 μL of culture cell suspension in the 96-well plate, with a final DMSO concentration of 0.2%. The plates were then incubated in a 5% CO2 incubator at 37° C. for 3 days. To obtain Day Zero Controls for background calculation, cells were seeded at 5000 cells/100 μL in a new 96-well plate and processed on the same day. Both Day Zero controls and 3 day culture plates were then treated as follows. 100 μL of CellTiter Glo Assay reagent was added to each well and the plate was incubated at room temperature for 15 min on a shaker at 200-300 RPM. Then 100 μL of cell lysate samples were transferred to white wall 96-well plates and luminescence was measured by a plate reader. The luminescence of Day Zero Control was subtracted from the luminescence intensity of 3 day culture readings. The assay control for this experiment was cells treated with 0.2% DMSO in culture medium and wells with 100 μL of culture medium (0.2% DMSO without cells) were used as the blank for data analysis.
The IC50 value of each compound was determined by using % inhibition by nor-malizing inhibition in DMSO treated control wells to 0% using the following formula method: […]
Plot percent inhibition in proliferation of triplicates against the respective concen-trations of compound and fit the dose response curve using the sigmoidal dose response equation to generate the IC50 in GraphPad Prism 8 software.

[2] = biological target: recombinant human KIT tyrosine kinase protein (Homo sapiens (Human), UniProt P10721); experiment: KIT tyrosine kinase assay (ADP-Glo); format: biochemical
Sequence of recombinant human KIT tyrosine kinase protein (P10721 546-976): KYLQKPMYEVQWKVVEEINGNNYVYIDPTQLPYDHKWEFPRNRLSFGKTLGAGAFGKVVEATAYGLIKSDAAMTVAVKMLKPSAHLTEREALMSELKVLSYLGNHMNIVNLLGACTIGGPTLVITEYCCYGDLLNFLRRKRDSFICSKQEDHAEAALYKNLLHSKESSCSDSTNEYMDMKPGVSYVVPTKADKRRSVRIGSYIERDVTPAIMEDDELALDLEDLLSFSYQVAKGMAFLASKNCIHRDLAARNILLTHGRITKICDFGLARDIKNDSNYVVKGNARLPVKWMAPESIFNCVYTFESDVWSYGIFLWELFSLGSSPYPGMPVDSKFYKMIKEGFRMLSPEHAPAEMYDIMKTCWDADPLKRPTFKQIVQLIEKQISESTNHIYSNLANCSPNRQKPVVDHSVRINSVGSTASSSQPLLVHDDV
Experimental: An in vitro assay utilizing the recombinant human KIT tyrosine kinase protein was developed to measure compound inhibition of KIT. KIT tyrosine kinase activity was measured by the ADP-Glo Kinase Assay system with poly […]) peptide substrate. Kinase Assay was performed in white 384-well plates and the luminescence was measured by Victor X5 Multilabel Counter (Perkin Elmer). Recombinant intracellular domain of human KIT protein was purchased from Carna Biosciences (Kobe, Japan). Poly […]) peptide was purchased from Sigma-Aldrich (St. Louis, Missouri, USA). ADP-Glo Kinase Assay reagent was purchased from Promega (Madison, Wisconsin, USA). Each test compound was dissolved in 100% DMSO to prepare 10 mM stock solutions. […] After the preincubation, 3 μL of substrate/ATP mixture was added and incubated for 1 hour at room temperature. The tyrosine phosphorylation by KIT kinase was quantified by ADP-Glo kinase assay kit following the manufacturer's protocol. Briefly, the phosphorylation reaction was terminated by adding 10 μL ADP-Glo reagent and incubated for 60 minutes at room temperature. 20 μL of Kinase Detection Reagent was added to each well and luminescence was measured by plate reader. […] Half maximal inhibitory concentration (IC50) was calculated by a Four […] Logistic Regression model using GraphPad Prism (GraphPad Software). The value without recombinant KIT protein and without test compound was used as a negative control (assay background).

[3] = Homo sapiens, M-07e, 72 h, SCF-dependent M-07e cell proliferation, 3 days, CellTiter Glo

| IC50 ([2]; Table 99) [nM] | SMILES | IC50 ([1]; Homo sapiens, M-07e, 72 h) [nM] | IC50 ([2]; Table 98) [nM] | IC50 [1, 3] [nM] | IC50 ([1]; SCF-dependent M-07e cell proliferation, 3 days, CellTiter Glo) [nM] |
| --- | --- | --- | --- | --- | --- |
| – | CCC(C)N(C)c1ccc(CNC(=O)c2ccc3c(c2)[nH]c(=O)n3C)cn1 (stereo not shown) [Example 84] | 180 | 16 | – | – |
| – | Cn1c(=O)[nH]c2cc(C(=O)NCc3ccc(Oc4ccc(F)cc4F)nc3)ccc21 [Compound 4, N-((6-(2,4-Difluorophenoxy)pyridin-3-yl)methyl)-1-methyl-2-oxo-2,3-dihydro-1H-benzi midazole-5-carboxamide] | – | 21 | 380 | – |
| 51 | CN(c1ccc(CNC(=O)c2ccc3c(c2)[nH]c(=O)n3C)cn1)C1CCCC(O)C1 (stereo not shown) [Example 104, N-((6-((3-Hydroxycyclohexyl)(methyl)amino)pyridin-3-yl)methyl)-1-methyl-2-oxo-2,3-d ihydro-1H-benzimidazole-5-carboxamide] | – | – | 7660 | – |
| – | Cn1c(=O)[nH]c2cc(C(=O)NCc3cnc4c(ccn4-c4ccccc4)c3)ccc21 [Compound 20, 1-Methyl-2-oxo-N-((1-phenyl-1H-pyrrolo[2,3-b]pyridin-5-yl)methyl)-2,3-dihydro-1H-benzimidazole-5-carboxamide] | – | 38 | 400 | – |
| 29 | [2H]C([2H])([2H])n1c(=O)[nH]c2cc(C(=O)NCc3ccc(N(C)[C@H]4C[C@@H](C(F)(F)F)C4)nc3)ccc21 (relative stereo) [Example 116, 1-(Trideuteromethyl)-N-((6-(methyl(cis-3-(trifluoromethyl)cyclobutyl)amino)pyridin-3-yl)methyl)-2-oxo-2,3-dihydro-1H-benzimidazole-5-carboxamide] | – | – | 28 | – |
| – | CN(CCC(F)(F)F)c1ccc(CNC(=O)c2ccc3c(c2)[nH]c(=O)n3C)cn1 [Example 67] | 220 | 25 | – | – |
| – | CN(c1ccc(CNC(=O)c2ccc3c(c2)[nH]c(=O)n3C)cn1)C1CC(F)(F)C1 [Example 65] | 270 | 35 | – | – |
| – | CN(c1ccc(CNC(=O)c2ccc3c(c2)[nH]c(=O)n3C)cn1)c1cccc(F)c1F [Example 61] | 760 | 56 | – | – |
| 27 | CC(C)N(C)c1ccc(CNC(=O)c2cc3[nH]c(=O)[nH]c3cc2F)cn1 [Example 136] | – | – | 209 | – |
| 21 | CN(c1ccc(CNC(=O)c2ccc3c(c2)[nH]c(=O)n3C)cn1)[C@H]1CCC(F)(F)C1 [Example 105, (S)—N-((6-((3,3-Difluorocyclopentyl)(methyl)amino)pyridin-3-yl)methyl)-1-methyl-2-o xo-2,3-dihydro-1H-benzimidazole-5-carboxamide] | – | – | 13 | – |
| – | Cn1c(=O)[nH]c2cc(C(=O)NCc3ccc(Nc4ccc(F)cc4)nc3)ccc21 [Example 57] | – | 227 | 7300 | – |
| – | CN(CC1CCCOC1)c1ccc(CNC(=O)c2ccc3c(c2)[nH]c(=O)n3C)cn1 (stereo not shown) [Example 69] | 520 | 96 | – | – |
| – | CN(c1ccc(CNC(=O)c2ccc3c(c2)[nH]c(=O)n3C)cn1)C12CC(C(F)(F)F)(C1)C2 [Example 80] | 240 | 31 | – | – |
| 36 | CN(c1ccc(CNC(=O)c2ccc3c(c2)[nH]c(=O)n3C)cn1)C1CC(OC(F)F)C1 (single isomer, unassigned) [106 Isomer I, N-((6-((3-(Difluoromethoxy)cyclobutyl)(methyl)amino)pyridin-3-yl)methyl)-1-methyl-2-oxo-2,3-dihydro-1H-benzimidazole-5-carboxamide] | – | – | – | 15 |

| SMILES | IC50 ([2]; Table 99) [nM] | IC50 ([1]; Homo sapiens, M-07e, 72 h) [nM] | IC50 ([2]; Table 98) [nM] | IC50 [1, 3] [nM] | IC50 ([1]; SCF-dependent M-07e cell proliferation, 3 days, CellTiter Glo) [nM] |
| --- | --- | --- | --- | --- | --- |
| CN(c1ccc(CNC(=O)c2ccc3c(c2)[nH]c(=O)n3C)cn1)[C@H]1C[C@@H]1C(F)(F)F [Example 127] | 47 | 1320 | – | – | – |
| CN(c1ccc(CNC(=O)c2ccc3c(c2)[nH]c(=O)n3C)cn1)C1[C@H]2CC(F)(F)C[C@@H]12 (stereo partly shown) [Example 126] | 33 | 806 | – | – | – |
| CN(c1ccc(CNC(=O)c2ccc3c(c2)[nH]c(=O)n3C)cn1)C1CC2(C1)CC2(F)F (stereo not shown) [Example 125] | 31 | 151 | – | – | – |
